In brackets after ≈: the same amount, converted by molar mass. Several values for one entry are separate records, joined by “and”; a condition that tells them apart may be missing. Equal values may be shown once.
Key:
Test in all cases: ≥ marks a high value that may be exact or a test limit, other limits are often not marked, values filed in µg/mL are converted to µM
[1] = test system: Candida albicans ATCC 10231
Candida tropicalis = test system: Candida tropicalis
[2] = test system: Phytophthora nicotianae PG344
Mammaliicoccus lentus = test system: Mammaliicoccus lentus
[3] = test system: Pseudomonas syringae pv. tabaci
Micrococcus luteus = test system: Micrococcus luteus
Escherichia coli D21 = test system: Escherichia coli D21
[4] = test system: Yersinia pseudotuberculosis YPIII
Bacillus megaterium Bm11 = test system: Bacillus megaterium Bm11
[5] = test system: Staphylococcus aureus ΔmprFpRBsyn
[6] = test system: Brucella abortus 9.49 (per-)
[7] = test system: Escherichia coli ATCC 23716
[8] = test system: Escherichia coli ATCC 25922
Yersinia pestis KIM pYV = test system: Yersinia pestis KIM pYV
Staphylococcus aureus = test system: Staphylococcus aureus
[9] = test system: Staphylococcus aureus ATCC 43300
[10] = test system: Acinetobacter baumannii ATCC 19606
[11] = test system: Pseudomonas aeruginosa CUN 4158-02
[12] = test system: Staphylococcus aureus ΔmprF
[13] = test system: Bordetella bronchiseptica CUN 11844-99
[14] = test system: Staphylococcus epidermidis KCTC 1917
Escherichia coli BL21 = test system: Escherichia coli BL21
[15] = test system: Candida albicans ATCC 18804
[16] = test system: Escherichia coli ATCC 10536
[17] = test system: Staphylococcus aureus CCARM 3543
Micrococcus luteus A270 = test system: Micrococcus luteus A270
[18] = test system: Staphylococcus aureus CCARM 3001
Escherichia coli AIG 221 = test system: Escherichia coli AIG 221
[19] = test system: Bacillus cereus ATCC 11778
Escherichia coli SBS 363 = test system: Escherichia coli SBS 363
[20] = test system: Pseudomonas aeruginosa KCTC 1637
[21] = test system: Pseudomonas aeruginosa ATCC BAA-427
[22] = test system: Bacillus megaterium ATCC 10778
[23] = test system: Salmonella typhimurium KCTC 1926
[24] = test system: Staphylococcus saprophyticus
[25] = test system: Staphylococcus epidermidis ATCC 12228
[26] = test system: Staphylococcus aureus ATCC 25293
[27] = test system: Escherichia coli CCT 1371
[28] = test system: Candida tropicalis IOC 4560
[29] = test system: Staphylococcus aureus ATCC 6538
[30] = test system: Salmonella enterica subsp. enterica serovar Typhimurium ATCC 14028
[31] = test system: Staphylococcus aureus ATCC 25923
[32] = test system: Staphylococcus aureus KCTC 1621
Proteus mirabilis = test system: Proteus mirabilis
[33] = test system: Pseudomonas aeruginosa ATCC 27853
Escherichia coli AIG 222 = test system: Escherichia coli AIG 222
[34] = test system: Escherichia coli KCTC 1682
[35] = test system: Pseudomonas aeruginosa NCIB 10421
[36] = test system: Staphylococcus aureus ATCC 12600
[37] = test system: Bacillus subtilis CCT 2471
Bacillus thuringiensis = test system: Bacillus thuringiensis
Candida albicans MDM8 = test system: Candida albicans MDM8
[38] = test system: Escherichia coli ATCC 11775
[39] = test system: Klebsiella pneumoniae ATCC 13883
[40] = test system: Pseudomonas aeruginosa PAO1
[41] = test system: Pseudomonas aeruginosa ATCC 15442
[42] = test system: Klebsiella oxytoca CIP 79.32
[43] = test system: Klebsiella aerogenes ATCC 13048
[44] = test system: Pseudomonas aeruginosa CCARM 2095
[45] = test system: Serratia marcescens ATCC 4112

CC(C)C[C@H](NC(=O)[C@H](C)NC(=O)CN)C(=O)N[C@@H](CCCN=C(N)N)C(=O)NCC(=O)N[C@H]1CSSC[C@@H](C(=O)N[C@@H](CCCCN)C(N)=O)NC(=O)[C@@H]2CCCN2C(=O)[C@H](CCCCN)NC(=O)[C@@H]2CCCN2C(=O)[C@@H]2CCCN2C(=O)[C@H](Cc2ccc(O)cc2)NC(=O)[C@H](CO)NC(=O)[C@H](CCCCN)NC(=O)[C@H]([C@@H](C)O)NC(=O)[C@H](Cc2c[nH]c3ccccc23)NC1=O [GALRGCWTKSYPPKPCK]
MIC [1]: 22 µM (≈ 41.6 µg/mL)
MIC (Candida tropicalis): 14 µM (≈ 26.5 µg/mL)
MIC [2]: 16 µM (≈ 30.2 µg/mL)
MIC (Mammaliicoccus lentus): 10 µM (≈ 18.9 µg/mL)
MIC [3]: 16 µM (≈ 30.2 µg/mL)
MIC (Micrococcus luteus): 8 µM (≈ 15.1 µg/mL)
MIC (Escherichia coli D21): 30 µM (≈ 56.7 µg/mL)
MIC [4]: 5 µM (≈ 9.45 µg/mL)
MIC (Bacillus megaterium Bm11): 3 µM (≈ 5.67 µg/mL)

CC[C@H](C)[C@H](NC(=O)[C@H](CCCCN)NC(=O)[C@H](CCCCN)NC(=O)[C@H](CO)NC(=O)[C@@H](NC(=O)CNC(=O)[C@H](CCCN=C(N)N)NC(=O)[C@H](CC(C)C)NC(=O)[C@@H](NC(=O)[C@@H](N)CCCCN)[C@@H](C)CC)C(C)C)C(=O)N[C@@H](CCSC)C(=O)N[C@@H](CCCN=C(N)N)C(=O)N[C@H](C(=O)N[C@@H](Cc1ccccc1)C(=O)N[C@@H](CC(C)C)C(=O)N[C@@H](CCCN=C(N)N)C(=O)N[C@@H](CCCN=C(N)N)C(=O)N[C@H](C(=O)N[C@@H](CC(C)C)C(=O)N[C@H](C(=O)NCC(=O)N[C@@H](CCCCN)C(=O)N[C@@H](CCCCN)C(N)=O)[C@@H](C)O)[C@@H](C)CC)[C@@H](C)O [KILRGVSKKIMRTFLRRILTGKK]
MIC [5]: 1.46 µM (≈ 4 µg/mL)
MIC [6]: 1.46 µM (≈ 4 µg/mL)
MIC [7]: 2.92 µM and 6.93 µM
MIC [8]: 1.46 µM (≈ 4 µg/mL)
MIC (Yersinia pestis KIM pYV): 5.83 µM (≈ 16 µg/mL)
MIC (Staphylococcus aureus): 5.83 µM (≈ 16 µg/mL)
MIC [9]: 23.3 µM (≈ 64 µg/mL)
MIC [10]: 1.46 µM (≈ 4 µg/mL)
MIC [11]: 1.46 µM (≈ 4 µg/mL)
MIC [12]: 1.46 µM (≈ 4 µg/mL)
MIC [13]: 0.729 µM (≈ 2 µg/mL)

CC[C@H](C)[C@H](N)C(=O)N[C@@H](CC(C)C)C(=O)NCC(=O)N[C@@H](CCCCN)C(=O)N[C@H](C(=O)N[C@@H](Cc1c[nH]c2ccccc12)C(=O)N[C@@H](CCC(=O)O)C(=O)NCC(=O)N[C@H](C(=O)N[C@@H](CCCCN)C(=O)N[C@@H](CO)C(=O)N[C@@H](CC(C)C)C(=O)N[C@@H](Cc1ccccc1)C(N)=O)[C@@H](C)CC)[C@@H](C)CC [ILGKIWEGIKSLF]
MIC [14]: 2 µM (≈ 3.01 µg/mL)
MIC (Escherichia coli BL21): 4 µM (≈ 6.01 µg/mL)
MIC [15]: 12.5 µM (≈ 18.8 µg/mL)
MIC [16]: 3 µM (≈ 4.51 µg/mL)
MIC [17]: 1 µM (≈ 1.5 µg/mL)
MIC (Micrococcus luteus A270): 0.78 µM (≈ 1.17 µg/mL)
MIC [18]: 1 µM (≈ 1.5 µg/mL)
MIC (Escherichia coli AIG 221): ≥ 32 µM
MIC [19]: ≥ 66.5 µM
MIC (Escherichia coli SBS 363): 1.56 µM (≈ 2.34 µg/mL)
MIC [20]: 2 µM (≈ 3.01 µg/mL)
MIC [21]: 4 µM (≈ 6.01 µg/mL)
MIC [22]: 0.78 µM (≈ 1.17 µg/mL)
MIC [23]: 2 µM (≈ 3.01 µg/mL)
MIC [24]: 0.665 µM (≈ 0.999 µg/mL)
MIC [25]: 8 µM (≈ 12 µg/mL)
MIC [26]: 0.665 µM (≈ 0.999 µg/mL)
MIC [27]: 3.32 µM (≈ 5 µg/mL)
MIC [28]: 1.56 µM (≈ 2.34 µg/mL)
MIC [29]: 3.32 µM (≈ 5 µg/mL)
MIC [30]: 66.5 µM (≈ 99.9 µg/mL)
MIC [31]: 2 µM (≈ 3.01 µg/mL)
MIC [32]: 2 µM (≈ 3.01 µg/mL)
MIC (Proteus mirabilis): ≥ 133 µM
MIC [10]: 8 µM (≈ 12 µg/mL)
MIC [33]: 66.5 µM (≈ 99.9 µg/mL)
MIC (Escherichia coli AIG 222): 16 µM (≈ 24 µg/mL)
MIC [34]: 4 µM (≈ 6.01 µg/mL)
MIC [35]: ≥ 50 µM
MIC [36]: 8 µM (≈ 12 µg/mL)
MIC [37]: 6.65 µM (≈ 9.99 µg/mL)
MIC (Bacillus thuringiensis): 16.6 µM (≈ 25 µg/mL)
MIC (Candida albicans MDM8): 3.13 µM (≈ 4.7 µg/mL)
MIC [38]: ≥ 32 µM
MIC [39]: ≥ 64 µM
MIC [40]: > 128 µM
MIC [41]: ≥ 133 µM
MIC [42]: 16 µM (≈ 24 µg/mL)
MIC [43]: ≥ 66.5 µM
MIC [44]: 1 µM (≈ 1.5 µg/mL)
MIC [45]: 0.36 µM (≈ 0.541 µg/mL)
